# From US9833497B2, “Human originated EGF domain proteins and use of the same” (CHENGDU SOURCEBIO LIMITED-LIABILITY COMPANY, priority 2013, dated 2017)
# Columns and labels:
# Type in all cases: cell-based
# E. coli DH5α = test: Antibacterial activity: MIC and growth curve against E. coli DH5α in 96-well plate; conditions: minimal inhibitory concentration against E. coli DH5α; 96-well plate, 5×10^5 CFU/mL, 37° C., judged after 8 h
# Outline: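 Log-phase DH5α (OD600 about 0.5, 37° C, 185 rpm in LB) was pelleted, resuspended in fresh LB and seeded at 5×10^5 CFU/mL with recombinant protein at 50, 25 and 12.5 μg/mL (two-fold series), in triplicate. Plates were shaken at 175 rpm, 37° C, and OD600 was read every 30 min. MIC was the lowest concentration with no growth.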
# E. coli BL21 = test: MIC against Gram-negative bacteria: E. coli BL21; conditions: for MIC E. coli BL21: two-fold serial dilution
# Outline: (§1)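 Bacteria grown in LB at 37° C with shaking to McFarland 0.5, pelleted and resuspended in fresh LB, then seeded at 5×10^5 CFU/mL per well. Purified recombinant human EGF domain proteins were two-fold serially diluted in triplicate and plates shaken at 37° C, 175 rpm. MIC is the lowest protein concentration with no bacterial growth.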
# Pseudomonas aeruginosa = test: MIC against Gram-negative bacteria: Pseudomonas aeruginosa; conditions: for MIC P. aeruginosa: two-fold serial dilution
# Outline: as §1
# Klebsiella pneumonia = test: MIC against Gram-negative bacteria: Klebsiella pneumonia; conditions: for MIC K. pneumonia: two-fold serial dilution
# Outline: as §1
# Enterobacter cloacae = test: MIC against Gram-negative bacteria: Enterobacter cloacae; conditions: for MIC E. cloacae: two-fold serial dilution
# Outline: as §1
# Aeromonas hydrophila = test: MIC against Gram-negative bacteria: Aeromonas hydrophila; conditions: for MIC A. hydrophila: two-fold serial dilution
# Outline: as §1
# Citrobacter diversus = test: MIC against Gram-negative bacteria: Citrobacter diversus; conditions: for MIC C. diversus: two-fold serial dilution
# Outline: as §1
# Moraxella catarrhalis = test: MIC against Gram-negative bacteria: Moraxella catarrhalis; conditions: for MIC M. catarrhalis: two-fold serial dilution
# Outline: as §1
# Proteus mirabilis = test: MIC against Gram-negative bacteria: Proteus mirabilis; conditions: for MIC P. mirabilis: two-fold serial dilution
# Outline: as §1
# Proteus vulgaris = test: MIC against Gram-negative bacteria: Proteus vulgaris; conditions: for MIC P. vulgaris: two-fold serial dilution
# Outline: as §1
# Serratia marcescens = test: MIC against Gram-negative bacteria: Serratia marcescens; conditions: for MIC S. marcescens: two-fold serial dilution
# Outline: as §1
# [1] = E. coli BL21, 10 h cultivation at 37° C., 5×10^5 CFU/mL
# [2] = P. aeruginosa, 10 h cultivation at 37° C., 5×10^5 CFU/mL
# [3] = K. pneumonia, 10 h cultivation at 37° C., 5×10^5 CFU/mL
# [4] = E. cloacae, 10 h cultivation at 37° C., 5×10^5 CFU/mL
# [5] = A. hydrophila, 10 h cultivation at 37° C., 5×10^5 CFU/mL
# [6] = C. diversus, 10 h cultivation at 37° C., 5×10^5 CFU/mL
# [7] = M. catarrhalis, 10 h cultivation at 37° C., 5×10^5 CFU/mL
# [8] = P. mirabilis, 10 h cultivation at 37° C., 5×10^5 CFU/mL
# [9] = P. vulgaris, 10 h cultivation at 37° C., 5×10^5 CFU/mL
# [10] = S. marcescens, 10 h cultivation at 37° C., 5×10^5 CFU/mL
# [11] = 10 h cultivation at 37° C., 5×10^5 CFU/mL
substance,measurement,setting,value
PRT987 (NVDDCPGHRCLNGGTCVDGVNTYNCQCPPEWTGQFCT; listed as Homo sapiens),MIC,E. coli DH5α,25 µg/mL
same,MIC,"E. coli BL21; E. coli BL21, 10 h cultivation at 37° C.",12.5 µg/mL
same,MIC,"Pseudomonas aeruginosa; P. aeruginosa, 10 h cultivation at 37° C.",25 µg/mL
same,MIC,"Klebsiella pneumonia; K. pneumonia, 10 h cultivation at 37° C.",50 µg/mL
same,MIC,"Enterobacter cloacae; E. cloacae, 10 h cultivation at 37° C.",25 µg/mL
same,MIC,"Aeromonas hydrophila; A. hydrophila, 10 h cultivation at 37° C.",12.5 µg/mL
same,MIC,"Citrobacter diversus; C. diversus, 10 h cultivation at 37° C.",50 µg/mL
same,MIC,"Moraxella catarrhalis; M. catarrhalis, 10 h cultivation at 37° C.",12.5 µg/mL
same,MIC,"Proteus mirabilis; P. mirabilis, 10 h cultivation at 37° C.",50 µg/mL
same,MIC,"Proteus vulgaris; P. vulgaris, 10 h cultivation at 37° C.",12.5 µg/mL
same,MIC,"Serratia marcescens; S. marcescens, 10 h cultivation at 37° C.",50 µg/mL
PRT792 (YGVLCAETCQCVNGGKCYHVSGACLCEAGFAGERCE; listed as Homo sapiens),MIC,E. coli DH5α,12.5 µg/mL
same,MIC (μg/mL) E. coli BL21,E. coli BL21; [1],50 µg/mL
same,MIC (μg/mL) P. aeruginosa,Pseudomonas aeruginosa; [2],12.5 µg/mL
same,MIC (μg/mL) K. pneumonia,Klebsiella pneumonia; [3],12.5 µg/mL
same,MIC (μg/mL) E. cloacae,Enterobacter cloacae; [4],25 µg/mL
same,MIC (μg/mL) A. hydrophila,Aeromonas hydrophila; [5],50 µg/mL
same,MIC (μg/mL) C. diversus,Citrobacter diversus; [6],25 µg/mL
same,MIC (μg/mL) M. catarrhalis,Moraxella catarrhalis; [7],12.5 µg/mL
same,MIC (μg/mL) P. mirabilis,Proteus mirabilis; [8],50 µg/mL
same,MIC (μg/mL) P. vulgaris,Proteus vulgaris; [9],12.5 µg/mL
same,MIC (μg/mL) S. marcescens,Serratia marcescens; [10],50 µg/mL
PRT1120 (DEDECASSPCQHGGRCLQRSDPALYGGVQAAFPGAFSFRHAAGFLCHCPPGFEGADCG; listed as Homo sapiens),MIC,E. coli DH5α,25 µg/mL
same,MIC E. coli BL21,E. coli BL21; [11],12.5 µg/mL
same,MIC P. aeruginosa,Pseudomonas aeruginosa; [11],25 µg/mL
same,MIC K. pneumonia,Klebsiella pneumonia; [11],50 µg/mL
same,MIC E. cloacae,Enterobacter cloacae; [11],25 µg/mL
same,MIC A. hydrophila,Aeromonas hydrophila; [11],12.5 µg/mL
same,MIC C. diversus,Citrobacter diversus; [11],50 µg/mL
same,MIC M. catarrhalis,Moraxella catarrhalis; [11],12.5 µg/mL
same,MIC P. mirabilis,Proteus mirabilis; [11],50 µg/mL
same,MIC P. vulgaris,Proteus vulgaris; [11],12.5 µg/mL
same,MIC S. marcescens,Serratia marcescens; [11],12.5 µg/mL
PRT1056 (DQDDCAPVGCSMYARCISEGEDATCQCLKGFAGDGKLCS; listed as Homo sapiens),MIC,E. coli DH5α,50 µg/mL
same,MIC E. coli BL21,E. coli BL21; [11],25 µg/mL
same,MIC P. aeruginosa,Pseudomonas aeruginosa; [11],12.5 µg/mL
same,MIC K. pneumonia,Klebsiella pneumonia; [11],25 µg/mL
same,MIC E. cloacae,Enterobacter cloacae; [11],50 µg/mL
same,MIC A. hydrophila,Aeromonas hydrophila; [11],12.5 µg/mL
same,MIC C. diversus,Citrobacter diversus; [11],50 µg/mL
same,MIC M. catarrhalis,Moraxella catarrhalis; [11],12.5 µg/mL
same,MIC P. mirabilis,Proteus mirabilis; [11],50 µg/mL
same,MIC P. vulgaris,Proteus vulgaris; [11],12.5 µg/mL
same,MIC S. marcescens,Serratia marcescens; [11],25 µg/mL
PRT302 (DIDECVEEPEICALGTCSNTEGSFKCLCPEGFSLSSSGRRCQ; listed as Homo sapiens),MIC,E. coli DH5α,12.5 µg/mL
same,MIC,E. coli BL21; [1],25 µg/mL
same,MIC,Pseudomonas aeruginosa; [2],12.5 µg/mL
same,MIC,Klebsiella pneumonia; [3],25 µg/mL
same,MIC,Enterobacter cloacae; [4],12.5 µg/mL
same,MIC,Aeromonas hydrophila; [5],12.5 µg/mL
same,MIC,Citrobacter diversus; [6],12.5 µg/mL
same,MIC,Moraxella catarrhalis; [7],12.5 µg/mL
same,MIC,Proteus mirabilis; [8],12.5 µg/mL
same,MIC,Proteus vulgaris; [9],50 µg/mL
same,MIC,Serratia marcescens; [10],12.5 µg/mL
PRT1219 (DHDSCVHGPCQNGGSCLRRLAVSSVLKSRESLPVIIVANEPLQPFLCKCLPGYAGSWCE; listed as Homo sapiens),MIC,E. coli DH5α,12.5 µg/mL
same,MIC against E. coli BL21,"E. coli BL21; E. coli BL21, 96-well plate, 5×10^5 CFU/mL, 37° C., 10 h",50 µg/mL
same,MIC against P. aeruginosa,"Pseudomonas aeruginosa; Pseudomonas aeruginosa, 96-well plate, 5×10^5 CFU/mL, 37° C., 10 h",25 µg/mL
same,MIC against K. pneumonia,"Klebsiella pneumonia; Klebsiella pneumonia, 96-well plate, 5×10^5 CFU/mL, 37° C., 10 h",12.5 µg/mL
same,MIC against E. cloacae,"Enterobacter cloacae; Enterobacter cloacae, 96-well plate, 5×10^5 CFU/mL, 37° C., 10 h",50 µg/mL
same,MIC against A. hydrophila,"Aeromonas hydrophila; Aeromonas hydrophila, 96-well plate, 5×10^5 CFU/mL, 37° C., 10 h",12.5 µg/mL
same,MIC against C. diversus,"Citrobacter diversus; Citrobacter diversus, 96-well plate, 5×10^5 CFU/mL, 37° C., 10 h",25 µg/mL
same,MIC against M. catarrhalis,"Moraxella catarrhalis; Moraxella catarrhalis, 96-well plate, 5×10^5 CFU/mL, 37° C., 10 h",25 µg/mL
same,MIC against P. mirabilis,"Proteus mirabilis; Proteus mirabilis, 96-well plate, 5×10^5 CFU/mL, 37° C., 10 h",50 µg/mL
same,MIC against P. vulgaris,"Proteus vulgaris; Proteus vulgaris, 96-well plate, 5×10^5 CFU/mL, 37° C., 10 h",25 µg/mL
same,MIC against S. marcescens,"Serratia marcescens; Serratia marcescens, 96-well plate, 5×10^5 CFU/mL, 37° C., 10 h",25 µg/mL
